This is an account of results in US4710497A, “Method for percutaneously administering physiologically active agents” (Nitto Electric Industrial Co., Ltd., priority 1985, dated 1987).

Data set [1] can be described thus: Pharmacological (behavioral) signs after percutaneous diazepam in animal models, e.g. rhesus monkey. In kind it is in vivo. To be noted: percutaneous administration, blood level of approximately 100 ng/ml.
The text on data set [2]: Rat full thickness skins were used in the following two types of diffusion cell methods.
The skin was excised from the shaved abdominal site of deceased male albino rats weighing 250~300 g, and washed with normal saline solution after the subcutaneous fat was carefully removed with scissors.
Probl. Dermatol., Vol. 7, p. […] The rat skin was mounted horizontally in a diffusion cell apparatus; the exposed area of the skin approximated 0.7 cm^2.
The active agent/PEAC solution of known concentration was added to the upper compartment of the cell, which was exposed to the epithelial side of the skin and a normal saline solution was placed in the lower compartment.
The penetration rate was studied in a thermostated bath at 30° C.
(§1) In all instances the in vitro diffusion cell technique or the in vivo rhesus monkey test earlier described were used. In all instances analysis was by conventional HPLC (high pressure liquid chromatography). Details and citations are given for illustrative techniques.
Detection was in a conventional manner via HPLC using a mobile phase of 70% A (0.5 acetic acid (v/v) with 1.0 g/l sodium pentane sulfonate) and 30% B (90% acetonitrile and 10% H2 O (v/v) with 1.0 g/l sodium pentane sulfonate); the columnn was ASI C18 300×3.9 mm and the flow rate was 2 ml/min by UV at 267 nm.

Data set [3] in a line: in vivo. To be noted: rhesus monkey, topical or ocular, In Vivo - Monkey Plasma, 200 mg on 49 cm^2, 25% ethyl laurate in N-methyl pyrrolidone. The method, then: Male rhesus monkeys weighing 10-14 Kg each were used as the subject. An appropriate area of the monkey's chest was shaved 24 hours before drug application.
Drug formulations comprising the PEAC were applied to a certain area of the chest as indicated in each example. The monkey was restrained in a chair to prevent it from touching its chest.
Blood samples were taken at appropriate intervals after the application. The heparinized blood was centrifuged, and the plasma was removed and stored at -20° C. until analyzed. […]
To this solution was added 120 mg of Klucel® (cross-linked hydroxypropylcellulose type HF, Hercules Inc.) and the same stirred thoroughly to obtain a uniform gel.
1.0 ml of the gel was applied to 49 cm^2 of the chest area of the monkey; the applied area was left open to the air for the duration of the experiment.
as §1
To this solution was added 120 mg of hydroxypropylcellulose (Klucel® HF). […]

The source holds these as a separate data set.
Setting [4] is: 2 hrs, I: 25 mg drug + 25% isopropyl myristate in N-methyl pyrrolidone.
Where [5] appears, read: 2 hrs, II: 25 mg drug + 25% isopropyl myristate in N-methyl piperidone.
Setting [6] is: 2 hrs, III: 25 mg drug + 25% isopropyl myristate in N-methyl caprolactam.
The mark [7] stands for this setting: 2 hrs, IV: 25 mg drug + 25% ethyl laurate in N-methyl pyrrolidone.
[8] abbreviates: 4 hrs, I: 25 mg drug + 25% isopropyl myristate in N-methyl pyrrolidone.
The mark [9] stands for this setting: 4 hrs, II: 25 mg drug + 25% isopropyl myristate in N-methyl piperidone.
The mark [10] stands for this setting: 4 hrs, III: 25 mg drug + 25% isopropyl myristate in N-methyl caprolactam.
Setting [11] is: 4 hrs, IV: 25 mg drug + 25% ethyl laurate in N-methyl pyrrolidone.
Where [12] appears, read: 6 hrs, I: 25 mg drug + 25% isopropyl myristate in N-methyl pyrrolidone.
[13] abbreviates: 6 hrs, II: 25 mg drug + 25% isopropyl myristate in N-methyl piperidone.
[14] abbreviates: 6 hrs, III: 25 mg drug + 25% isopropyl myristate in N-methyl caprolactam.
[15] abbreviates: 6 hrs, IV: 25 mg drug + 25% ethyl laurate in N-methyl pyrrolidone.
The mark [16] stands for this setting: 8 hrs, I: 25 mg drug + 25% isopropyl myristate in N-methyl pyrrolidone.
The mark [17] stands for this setting: 8 hrs, II: 25 mg drug + 25% isopropyl myristate in N-methyl piperidone.
Where [18] appears, read: 8 hrs, III: 25 mg drug + 25% isopropyl myristate in N-methyl caprolactam.
[19] abbreviates: 8 hrs, IV: 25 mg drug + 25% ethyl laurate in N-methyl pyrrolidone.
[20] abbreviates: Comparative Composition B: active agent 3 g in 97 g dimethyl propionamide.
Setting [21] is: Comparative Composition C: active agent 3 g in 97 g acetone, acetone evaporated off.
The mark [22] stands for this setting: Composition A: active agent 3 g in 97 g of 25 volume % isopropyl myristate in dimethyl propionamide.

Like-named read-outs stand apart in the source and are kept apart here. Bounds are passed on as bounds.

For the compound `CN1C(=O)CN=C(c2ccccc2)c2cc(Cl)ccc21` [Diazepam, 7-Chloro-1,3-dihydro-1-methyl-5-phenyl-2H-1,4-benzodiazepine-2-one], the “pharmacological (behavioral) signs” value in data set [1] is reported as “produces pharmacological (behavioral) signs of therapeutic effectiveness”.

For the compound `COC(=O)C1=C(C)NC(C)=C(C(=O)OC)C1c1ccccc1[N+](=O)[O-]` [Nifedipine], the flux in data set [2] (2 hrs, V (control): 25 mg drug in 1 ml N-methyl pyrrolidone) was less than 2 μg/cm^2 /hr; in data set [2] (4 hrs, V (control): 25 mg drug in 1 ml N-methyl pyrrolidone), 2.7 μg/cm^2 /hr; in data set [2] (6 hrs, V (control): 25 mg drug in 1 ml N-methyl pyrrolidone), 8.1 μg/cm^2 /hr; in data set [2] (8 hrs, V (control): 25 mg drug in 1 ml N-methyl pyrrolidone), 3.9 μg/cm^2 /hr.

Turning to `COc1ccc2c(c1)c(CC(=O)O)c(C)n2C(=O)c1ccc(Cl)cc1` [Indomethacin, 1-(p-chlorobenzoyl)-5-methoxy-2-methylindole-3-acetic acid], the concentration at 1 h in data set [3] (1 hour) was 370 ng/mL. In data set [3] (2 hours), the concentration at 2 h was determined as 505 ng/mL. In data set [3] (3 hours), this compound had a concentration at 3 h of 420 ng/mL. Also, the concentration at 5 h in data set [3] (5 hours as printed) came out at 110 ng/mL; in data set [3] (5 hours), 225 ng/mL. Also, the flux in data set [2] (setting [4]) came out at 65.1 μg/cm^2 /hr; in data set [2] (setting [5]), 55.7 μg/cm^2 /hr; in data set [2] (setting [6]) it was 11.3 μg/cm^2 /hr; in data set [2] (setting [7]), 89.5 μg/cm^2 /hr; in data set [2] (setting [8]), 39.0 μg/cm^2 /hr; in data set [2] (setting [9]), 49.3 μg/cm^2 /hr. The flux in data set [2] (setting [10]) stood at 56.8 μg/cm^2 /hr; in data set [2] (setting [11]), 63.7 μg/cm^2 /hr; in data set [2] (setting [12]) it was 21.5 μg/cm^2 /hr; in data set [2] (setting [13]) it was 29.3 μg/cm^2 /hr; in data set [2] (setting [14]) it was 41.3 μg/cm^2 /hr; in data set [2] (setting [15]) it was 23.0 μg/cm^2 /hr. The flux in data set [2] (setting [16]) was 13.2 μg/cm^2 /hr; the flux in data set [2] (setting [17]) turned out to be 15.1 μg/cm^2 /hr; the flux in data set [2] (setting [18]) stood at 21.8 μg/cm^2 /hr; the flux in data set [2] (setting [19]) was found to be 13.9 μg/cm^2 /hr; the flux under setting [20] came to 150 μg/cm^2 /24 hrs; the flux under setting [21] is 30 μg/cm^2 /24 hrs. The same compound displayed a flux under setting [22] of 394 μg/cm^2 /24 hrs.

The compound `O=C(O)c1ccccc1Nc1cccc(C(F)(F)F)c1` [flufenamic acid, N-(3'-trifluoro-methylphenyl)-anthranilic acid] gave a flux under setting [20] of 311 μg/cm^2 /24 hrs, a flux under setting [21] of 26 μg/cm^2 /24 hrs and a flux under setting [22] of 598 μg/cm^2 /24 hrs.

Turning to `CC(C)Cc1ccc(C(C)C(=O)O)cc1` (stereo not drawn) [Ibuprofen, p-isobutylhydratropic acid], the flux is given as 154.0 μg/cm^2 /hr in data set [2] (setting [4]); 142.0 μg/cm^2 /hr in data set [2] (setting [5]); 33.3 μg/cm^2 /hr in data set [2] (setting [6]); 192.8 μg/cm^2 /hr in data set [2] (setting [7]); 95.6 μg/cm^2 /hr in data set [2] (setting [8]); 79.2 μg/cm^2 /hr in data set [2] (setting [9]). The flux worked out at 90.7 μg/cm^2 /hr in data set [2] (setting [10]); 93.0 μg/cm^2 /hr in data set [2] (setting [11]); 53.9 μg/cm^2 /hr in data set [2] (setting [12]); 46.1 μg/cm^2 /hr in data set [2] (setting [13]); 76.4 μg/cm^2 /hr in data set [2] (setting [14]); 47.5 μg/cm^2 /hr in data set [2] (setting [15]). The flux in data set [2] (setting [16]) is 49.6 μg/cm^2 /hr; the flux in data set [2] (setting [17]) turned out to be 40.4 μg/cm^2 /hr; the flux in data set [2] (setting [18]) is listed as 63.2 μg/cm^2 /hr; the flux in data set [2] (setting [19]) is 40.0 μg/cm^2 /hr; the flux under setting [20] is reported as 835 μg/cm^2 /24 hrs; the flux under setting [21] is listed as 242 μg/cm^2 /24 hrs. This compound also yielded a flux under setting [22] of 1085 μg/cm^2 /24 hrs.
